US9989532B2, “Methods and compositions for detecting coagulation inhibitors” (The University of North Carolina at Chapel Hill, priority 2013, dated 2018)

Assays:
[1] = test system: a2M-IIa; experiment: a2M-IIa substrate cleavage test on plasma of fed mice
Description: (§1) Mice were fed Xarelto or Pradaxa or regular chow. Plasma from the animals was analyzed for the presence of dabigatran (active metabolite of Pradaxa) or rivaroxaban (active component of Xarelto). […] 0.5 mM of para-nitroanilide synthetic substrate (Pefachrome FXa) was added and substrate cleavage was determined by appearance of yellow color characteristic of the cleaved substrate.

[2] = test system: mice; experiment: saphenous vein injury bleeding time in mice; type: in vivo; details: FIG. 6, normal mouse
Description: Mice were administered 160 μg/kg rivaroxaban designed to produce a free plasma level of 36 ng/mL (75 nM), assuming 1.6% recovery based on estimates from Gnoth et al. (“in vitro and in vivo P-glycoprotein transport characteristics of rivaroxaban” J Pharmacol Exp Thor. 338:372-380 (2011) doi: 10.1124/jpet.111.180240) and Weinz et al. (“Pharmacokinetics of BAY 59-7939—an oral, direct Factor Xa inhibitor—in rats and dogs” Xenobiotica 35:891-910 (2005) doi: 10.1080/00498250500250493) and accounting for 95-98% blood cell and plasma protein binding (Weinz et al. “Pharmacokinetics of BAY 59-7939—an oral, direct Factor Xa inhibitor—in rats and dogs” Xenobiotica 35:891-910 (2005))

[3] = cited from earlier work
[4] = cited from earlier work; for time to peak plasma concentration: after oral ingestion
[5] = biological target: T1, a2M-Xa (Homo sapiens, UniProt P00742); experiment: substrate cleavage by a2M-Xa (factor Xa caged in alpha-2-macroglobulin); type: biochemical; parameters: Factor Xa was purchased from Enzyme Research Labs; host or cells: no expression host: complex formed in vitro from purchased factor Xa and a2M purified from human plasma, then purified on heparin Sepharose and Q-Sepharose; details: for cleavage of the substrate, (d) a2M-Xa: substance in sample, substrate methoxycarbonyl-D-cyclohexylalanyl-glycyl-arginine-para-nitroaniline
Description: (§2) Substrate cleavage in the presence of test sample is measured for all four test conditions.
(§3) There are any number of substrates for thrombin and factor Xa and other proteases as described herein that can be used in the methods of this invention. In some embodiments, the substrate is a chromogenic substrate, which can be a para-nitroanalide synthetic substrate. Non-limiting examples of a chromogenic substrate of this invention include tosyl-glycyl-prolyl-arginine para-nitroanilide, H-D-cyclohexylglycyl-alanyl-arginine para-nitroanilide, H-beta-alanyl-glycyl-arginine para-nitroanilide, H-D-cyclohexylalanyl-alanyl-arginine para-nitroanilide, H-D-phenylalanyl-pipecolyl-arginine para-nitroanilide, H-D-(carbobenzoyl)lysyl-prolyl-arginine para-nitroanilide, H-beta-alanyl-glycyl-arginine 7-amino-4-methylcoumarin, H-D-cyclohexylglycyl-alanyl-arginine 7-amino-4-methylcoumarin, H-D-(carbobenzoyl)lysyl-prolyl-arginine 7-amino-4-methylcoumarin, methoxycarbonyl-D-cyclohexylalanyl-glycyl-arginine para-nitroanilide, methoxycarbonyl-D-cyclohexylglycyl-glycyl-arginine para-nitroanilide, benzoyloxycarbonyl-D-arginyl-glycyl-arginine para-nitroanilide, benzoyl-isoleucyl-glutamyl-glycyl-arginine para-nitroanilide, methylsulfonyl-D-cyclohexylalanyl-glycyl-arginine 7-amino-4-methylcoumarin, and methoxycarbonyl-D-cyclohexylalanyl-glycyl-arginine 7-amino-4-methylcoumarin.
(§4) 0.5 mM of para-nitroanilide synthetic substrate (Pefachrome FXa) was added and the rate of substrate cleavage determined by appearance of yellow color characteristic of the cleaved substrate. Pefachrome FXa is also effective as a substrate for thrombin.
(§5) The rates of substrate cleavage were converted to concentrations using measured Km and kcat values determined as previously described (Joost et al. “Inhibition of human blood coagulation factor Xa by alpha-2-macroglobulin” Biochemistry 26:5932-5937 (1987) doi: 10.1021/bi00392a053) (FIGS. 1-5).

[6] = biological target: T2, thrombin (Homo sapiens, UniProt P00734); experiment: substrate cleavage by thrombin in presence of sample; type: biochemical; details: substance in sample; substrate methoxycarbonyl-D-cyclohexylalanyl-glycyl-arginine-para-nitroaniline
T2 construct: Thrombin (factor IIa) was purchased from Haematologic Technologies; purchased Haematologic Technologies
Description: as §2, §3
(§6) Thrombin (factor IIa) was purchased from Haematologic Technologies. Factor Xa was purchased from Enzyme Research Labs.

[7] = biological target: T3, a2M-thrombin (a2M-IIa) (Homo sapiens, UniProt P00734); experiment: substrate cleavage by a2M-IIa (thrombin caged in alpha-2-macroglobulin); type: biochemical; details: for cleavage of the substrate, (b) a2M-thrombin (a2M-IIa): substance in sample, substrate methoxycarbonyl-D-cyclohexylalanyl-glycyl-arginine-para-nitroaniline
T3 construct: Thrombin (factor IIa) was purchased from Haematologic Technologies; host or cells: no expression host: complex formed in vitro from purchased thrombin and a2M purified from human plasma, then purified on Q-Sepharose
Description: as §2, §3, §4
Purified a2M-IIa was eluted from the column with 1M sodium chloride in 20 mM HEPES (pH 7.4).
as §5

[8] = biological target: T4, factor Xa (Homo sapiens, UniProt P00742); experiment: substrate cleavage by factor Xa in presence of sample; type: biochemical; details: substance in sample; substrate methoxycarbonyl-D-cyclohexylalanyl-glycyl-arginine-para-nitroaniline
T4 construct: Factor Xa was purchased from Enzyme Research Labs; purchased Enzyme Research Labs
Description: as §2, §3, §6

[9] = assumed, based on estimates from Gnoth et al. and Weinz et al.; cited from earlier work
[10] = biological target: T1, a2M-Xa; details: substance in plasma of mice fed Pradaxa or Xarelto
Description: as §1

T4 sequence (P00742 235-488 limits assumed): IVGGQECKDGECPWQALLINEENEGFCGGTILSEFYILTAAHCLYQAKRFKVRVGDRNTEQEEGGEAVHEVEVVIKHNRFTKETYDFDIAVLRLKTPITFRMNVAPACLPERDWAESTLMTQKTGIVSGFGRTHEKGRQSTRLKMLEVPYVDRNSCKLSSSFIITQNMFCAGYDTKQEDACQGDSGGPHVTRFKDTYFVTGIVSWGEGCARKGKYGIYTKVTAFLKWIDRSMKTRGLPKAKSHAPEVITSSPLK
T4 sequence (P00742 41-179 limits assumed): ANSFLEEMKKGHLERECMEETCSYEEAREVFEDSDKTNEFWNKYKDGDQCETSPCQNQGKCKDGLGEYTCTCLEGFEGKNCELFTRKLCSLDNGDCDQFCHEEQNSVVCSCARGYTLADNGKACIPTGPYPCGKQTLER

Row | Molecule | cleavage of the substrate, (d) a2M-Xa [5] | cleavage of the substrate, (a) Thrombin [6] | cleavage of the substrate, (b) a2M-thrombin (a2M-IIa) [7] | cleavage of the substrate, (c) Factor Xa [8] | time to peak plasma concentration [4] | oral bioavailability [4] | further results
1 | [H]/N=C(/N)c1ccc(NCc2nc3cc(C(=O)N(CCC(=O)O)c4ccccn4)ccc3n2C)cc1 [dabigatran] | – | – | – | – | approximately 1.5 hours | 7.2% | presence of Dabigatran in plasma ([1]; mice fed Pradaxa, animals 7-12): yes; presence of Dabigatran in plasma ([1]; mice fed Xarelto, animals 1-6): no; time for saphenous vein injury to stop bleeding ([2]; 7 μg/kg dabigatran alone): more than 2 minutes; bound to plasma proteins [3]: 35%; peak plasma level ([4]; healthy human volunteers): 150 ng/mL; route of excretion ([4]; oral treatment): predominantly excreted in the feces
2 | COc1ccc(-n2nc(C(N)=O)c3c2C(=O)N(c2ccc(N4CCCCC4=O)cc2)CC3)cc1 [apixaban] | – | – | – | – | – | more than 50% | eliminated by the kidneys ([4]; in vivo): 25%; metabolism ([4]; in vivo): metabolized in part by CYP3A4
3 | O=C(NC[C@H]1CN(c2ccc(N3CCOCC3=O)cc2)C(=O)O1)c1ccc(Cl)s1 [rivaroxaban] | No | Cleavage | Cleavage | No | approximately 3 hours | more than 80% | effect on a2M-IIa cleavage of substrate ([1]; substance in plasma of mice fed Pradaxa or Xarelto): had no effect; time for saphenous vein injury to stop bleeding ([2]; 160 μg/kg rivaroxaban alone): ~2 min; effect on substrate cleavage by purified a2M-Xa ([5]; FIG. 2, buffer pH 7.4, 5 minutes incubation, 0.5 mM Pefachrome FXa): blocked substrate cleavage; recovery [9]: 1.6%; blood cell and plasma protein binding [3]: 95-98%; food effect on absorption from the gastrointestinal tract ([4]; in vivo): food does not affect absorption; excreted by the kidneys ([4]; orally ingested): Sixty-six; terminal half-life ([4]; steady state, patients >75 years old): up to 12 hours; effect on substrate cleavage by purified a2M-IIa ([7]; FIG. 1, buffer pH 7.4, 5 minutes incubation, 0.5 mM Pefachrome FXa): did not block substrate cleavage; effect on a2M-Xa cleavage of substrate [10]: blocked
4 | CC(=O)CC(c1ccccc1)c1c(O)c2ccccc2oc1=O (stereo not drawn) [Warfarin] | Cleavage | Cleavage | Cleavage | Cleavage | – | – | –

Further lines, with some results ahead:

Row | cleavage of the substrate, (d) a2M-Xa [5] | cleavage of the substrate, (a) Thrombin [6] | cleavage of the substrate, (b) a2M-thrombin (a2M-IIa) [7] | cleavage of the substrate, (c) Factor Xa [8] | Molecule | time to peak plasma concentration [4] | oral bioavailability [4] | further results
5 | Cleavage | Cleavage | Cleavage | No | low molecular weight heparin | – | – | –
6 | Cleavage | No | Cleavage | No | heparin | – | – | –
